From ChEMBL document CHEMBL4627279, “Discovery and structure-activity relationships of spiroindolines as novel inducers of oligodendrocyte progenitor cell differentiation” (Bioorg Med Chem, 2020)
pEC50, pIC50: −log10 of the molar value. Calls of active or inactive are those of the source. No cut-off for these calls is given here.

Columns and labels:
cells [1] = conditions: Rattus norvegicus
Description: Induction of rat oligodendrocyte precursor cells differentiation assessed as myelin basic protein expression by immunostaining based assay

CYP2D6 = CYP2D6 (Homo sapiens, UniProt P10635); test: Inhibition of CYP2D6 in human liver microsomes at 10 uM; assay type: ADME
in vitro [2] = conditions: human
Description: Metabolic stability in human assessed as parent compound remaining after 30 mins

[3] = Brain to plasma permeability coefficient, Kp of the compound in C57BL/6 mouse after 0.5 hrs; assay type: ADME
Cytochrome P450 2C9 = Cytochrome P450 2C9 (Homo sapiens, UniProt P11712); test: Inhibition of CYP2C9 in human liver microsomes; assay type: ADME
Cytochrome P450 3A4 = Cytochrome P450 3A4 (Homo sapiens, UniProt P08684); test: Inhibition of CYP3A4 in human liver microsomes; assay type: ADME
[4] = Elimination half life in C57BL/6 mouse at 10 mg/kg, po administered as a single dose; assay type: ADME, organism-based; conditions: in vivo, read-out: beta t1/2 (converted)
[5] = Brain to plasma permeability coefficient, Kp of the compound in C57BL/6 mouse after 4 hrs; assay type: ADME
cells [6] = conditions: Rattus norvegicus; remark: listed apart in the source
Description: Induction of rat oligodendrocyte precursor cells differentiation assessed as myelin basic protein expression by immunostaining based assay relative to control

in vitro [7] = conditions: mouse
Description: Metabolic stability in mouse assessed as parent compound remaining after 30 mins

Mus musculus = test: Immunosuppressive activity in MOG (35 to 55 residues)/pertussis toxin-induced experimental autoimmune encephalomyelitis C57BL/6 mouse model assessed as reduction in development of clinical symptoms at 50 mg/kg, po administered once a day starting from day 3 post immunization upto 17 days; assay type: functional, organism-based
hERG (KCNH2) = hERG (KCNH2) (Homo sapiens, UniProt Q12809); test: in vitro
Description: Inhibition of human ERG at 10 uM

[8] = Volume of distribution in C57BL/6 mouse at 1 mg/kg, iv administered as a single dose; assay type: ADME, organism-based; conditions: in vivo
[9] = Plasma clearance in C57BL/6 mouse at 1 mg/kg, iv administered as a single dose; assay type: ADME, organism-based
[10] = Cmax in C57BL/6 mouse at 10 mg/kg, po administered as a single dose; assay type: ADME, organism-based; design: dose 10 mg/kg, route oral; conditions: in vivo
[11] = Oral bioavailability in C57BL/6 mouse at 10 mg/kg administered as a single dose; assay type: ADME, organism-based; conditions: in vivo
physchem = conditions: buffer, pH 7.4
Description: Lipophilicity, log D of the compound at pH 7.4

[12] = AUClast in C57BL/6 mouse at 10 mg/kg, po administered as a single dose; assay type: ADME, organism-based; design: dose 10 mg/kg, route oral, time 0 - last; conditions: in vivo

Chain of hERG (KCNH2) (Q12809 whole entry): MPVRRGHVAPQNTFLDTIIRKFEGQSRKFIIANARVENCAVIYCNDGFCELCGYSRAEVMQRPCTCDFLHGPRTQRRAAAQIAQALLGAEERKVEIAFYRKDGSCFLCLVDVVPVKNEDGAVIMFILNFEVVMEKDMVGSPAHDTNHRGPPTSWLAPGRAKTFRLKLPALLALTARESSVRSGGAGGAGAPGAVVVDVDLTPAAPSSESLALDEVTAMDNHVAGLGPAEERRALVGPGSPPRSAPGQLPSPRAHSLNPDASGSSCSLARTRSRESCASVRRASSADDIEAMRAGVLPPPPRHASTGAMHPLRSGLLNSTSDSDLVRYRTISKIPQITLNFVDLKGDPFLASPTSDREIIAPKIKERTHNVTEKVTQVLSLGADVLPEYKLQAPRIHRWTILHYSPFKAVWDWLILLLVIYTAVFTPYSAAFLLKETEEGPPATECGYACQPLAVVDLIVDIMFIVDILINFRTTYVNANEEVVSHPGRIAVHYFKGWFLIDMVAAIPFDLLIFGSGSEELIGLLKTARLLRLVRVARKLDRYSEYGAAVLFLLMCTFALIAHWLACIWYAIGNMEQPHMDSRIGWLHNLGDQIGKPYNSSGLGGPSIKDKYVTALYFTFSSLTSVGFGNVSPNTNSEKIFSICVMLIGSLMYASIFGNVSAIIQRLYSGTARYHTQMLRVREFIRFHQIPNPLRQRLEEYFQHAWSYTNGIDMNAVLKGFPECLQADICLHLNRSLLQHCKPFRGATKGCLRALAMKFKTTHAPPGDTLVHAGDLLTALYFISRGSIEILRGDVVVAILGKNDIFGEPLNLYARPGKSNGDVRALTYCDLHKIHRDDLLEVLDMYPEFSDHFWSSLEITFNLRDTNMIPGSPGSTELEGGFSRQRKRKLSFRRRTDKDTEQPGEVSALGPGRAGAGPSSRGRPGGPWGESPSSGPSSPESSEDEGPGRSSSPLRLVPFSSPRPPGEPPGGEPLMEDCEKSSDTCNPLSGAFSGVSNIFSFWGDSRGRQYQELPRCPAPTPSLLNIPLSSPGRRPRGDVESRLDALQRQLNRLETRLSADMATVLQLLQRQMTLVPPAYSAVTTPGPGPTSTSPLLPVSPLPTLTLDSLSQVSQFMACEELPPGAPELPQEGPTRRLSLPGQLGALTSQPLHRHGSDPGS
Chain of Cytochrome P450 2C9 (P11712 whole entry): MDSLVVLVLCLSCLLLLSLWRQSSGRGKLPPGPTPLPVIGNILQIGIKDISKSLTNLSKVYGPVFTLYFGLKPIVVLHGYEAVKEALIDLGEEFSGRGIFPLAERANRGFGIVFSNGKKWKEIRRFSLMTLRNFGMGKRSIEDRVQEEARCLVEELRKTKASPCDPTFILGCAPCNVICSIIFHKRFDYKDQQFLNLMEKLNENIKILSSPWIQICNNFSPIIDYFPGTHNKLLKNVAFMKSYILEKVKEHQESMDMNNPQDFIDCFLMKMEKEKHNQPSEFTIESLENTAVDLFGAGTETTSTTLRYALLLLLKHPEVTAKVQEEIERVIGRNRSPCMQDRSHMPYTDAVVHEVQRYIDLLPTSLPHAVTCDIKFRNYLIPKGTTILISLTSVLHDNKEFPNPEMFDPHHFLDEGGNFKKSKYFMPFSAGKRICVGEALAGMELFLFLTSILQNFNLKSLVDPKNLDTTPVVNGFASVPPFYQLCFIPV
Chain of CYP2D6 (P10635 whole entry): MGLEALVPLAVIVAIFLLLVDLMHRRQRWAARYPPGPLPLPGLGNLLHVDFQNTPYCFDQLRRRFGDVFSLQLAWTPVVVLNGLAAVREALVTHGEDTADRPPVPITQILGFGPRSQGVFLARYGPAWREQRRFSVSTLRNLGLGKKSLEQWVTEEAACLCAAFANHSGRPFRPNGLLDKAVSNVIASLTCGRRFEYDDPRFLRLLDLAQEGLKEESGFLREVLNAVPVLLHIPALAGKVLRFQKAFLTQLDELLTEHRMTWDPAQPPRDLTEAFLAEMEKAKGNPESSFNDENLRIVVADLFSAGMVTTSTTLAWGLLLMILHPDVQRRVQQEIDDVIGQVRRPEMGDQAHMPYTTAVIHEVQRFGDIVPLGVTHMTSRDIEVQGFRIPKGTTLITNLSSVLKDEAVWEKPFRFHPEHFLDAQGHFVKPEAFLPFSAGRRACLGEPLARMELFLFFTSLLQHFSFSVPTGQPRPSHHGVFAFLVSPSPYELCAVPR
Chain of Cytochrome P450 3A4 (P08684 whole entry): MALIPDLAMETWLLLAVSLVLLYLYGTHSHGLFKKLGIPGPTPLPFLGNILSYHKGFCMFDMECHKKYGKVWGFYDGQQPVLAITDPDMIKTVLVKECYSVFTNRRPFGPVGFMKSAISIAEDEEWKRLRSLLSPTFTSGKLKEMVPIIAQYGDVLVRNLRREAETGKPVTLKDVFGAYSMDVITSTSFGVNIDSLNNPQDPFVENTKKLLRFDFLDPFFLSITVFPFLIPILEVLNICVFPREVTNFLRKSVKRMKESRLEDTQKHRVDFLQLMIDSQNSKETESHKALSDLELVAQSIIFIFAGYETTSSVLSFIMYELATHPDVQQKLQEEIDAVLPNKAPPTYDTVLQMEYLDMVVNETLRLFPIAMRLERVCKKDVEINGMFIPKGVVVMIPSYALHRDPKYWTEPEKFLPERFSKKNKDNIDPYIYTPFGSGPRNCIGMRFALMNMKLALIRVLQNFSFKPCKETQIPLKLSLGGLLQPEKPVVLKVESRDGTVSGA

Row | SMILES | pEC50 (cells [1]) | other results
1 | CC(C)c1ccc2c(c1)C(=O)C1(CCN(CCc3ccccc3)CC1)N2 | 6.27 | –
2 | O=C1c2cc(C(F)(F)F)ccc2CC12CCN(CC1CCOCC1)CC2 | 6.96 | –
3 | O=C1c2cc(Cl)ccc2NC12CCN(CC1CCOCC1)CC2 | 6.49 | –
4 | CC(C)c1ccc2c(c1)C(=O)C1(CCN(CC3CCC3)CC1)N2 | 7.80 | –
5 | CCCN1CCC2(CC1)Nc1ccc(C(C)C)cc1C2=O | 6.26 | –
6 | CN1c2ccc(C(F)(F)F)cc2C(=O)C12CCN(CC1CCOCC1)CC2 | 8.03 | –
7 | CC(C)CN1CCC2(CC1)Nc1ccc(C(C)C)cc1C2=O | 6.48 | –
8 | CC(C)(C)c1ccc2c(c1)C(=O)C1(CCN(CC3CCOCC3)CC1)N2 | 8.00 | –
9 | OC1c2cc(C(F)(F)F)ccc2NC12CCN(CC1CCOCC1)CC2 (stereo unspecified) | 6.28 | –
10 | CC(C)c1ccc2c(c1)C(=O)C1(CCN(CC3CCCC3)CC1)N2 | 7.60 | –
11 | CC(C)c1ccc2c(c1)C(=O)C1(CCN(Cc3ccccc3)CC1)N2 | 6.48 | –
12 | O=C1c2cc(O)ccc2NC12CCN(CC1CCOCC1)CC2 | < 5.00 | –
13 | O=C1c2ccccc2NC12CCN(CC1CCOCC1)CC2 | 6.26 | –
14 | CC(C)c1ccc2c(c1)C(=O)C1(CCN(CC3CCOCC3)CC1)N2 | 8.34 | –
15 | CC(C)c1ccc2c(c1)C(=O)C1(CCN(C(=O)C3CC3)CC1)N2 | < 5.00 | –
16 | CC(C)c1ccc2c(c1)C(=O)C1(CCN(S(=O)(=O)C3CC3)CC1)N2 | < 5.00 | –
17 | CC(C)c1ccc2c(c1)C(=O)C1(CCN(CC3CCCCC3)CC1)N2 | 7.43 | –
18 | COc1ccc2c(c1)C(=O)C1(CCN(CC3CCOCC3)CC1)N2 | 6.01 | –
19 | FC(F)(F)c1ccc2c(c1)CC1(CCN(CC3CCOCC3)CC1)N2 | 6.62 | –
20 | O=C1c2cc(C(F)(F)F)ccc2OC12CCN(CC1CCOCC1)CC2 | 6.32 | –
21 | O=C1c2cc(C(F)(F)F)ccc2NC12CCN(CC1CCOCC1)CC2 | 8.49 | inhibition at 10 µM (CYP2D6): 70%; remaining at 0.5 h (in vitro [2]): 35%; Kp at 0.5 h [3]: 25.5; pIC50 (Cytochrome P450 2C9): < 4.74; pIC50 (Cytochrome P450 3A4): < 4.74; half-life [4]: 6.4 h; Kp at 4 h [5]: 50.9; Emax (cells [6]): 240%; remaining at 0.5 h (in vitro [7]): 68%; Activity (Mus musculus): Active; inhibition at 10 µM (hERG (KCNH2)): 94%; Vd [8]: 31.5 L/kg; clearance [9]: 79.2 mL/min/kg; Cmax [10]: 308 ng/mL; bioavailability [11]: 116%; logD (physchem): 2.8; AUC(0-t) [12]: 1780 ng·h/mL
22 | CN1c2ccc(C(F)(F)F)cc2CC12CCN(CC1CCOCC1)CC2 | 5.15 | –
23 | CC(C)Oc1ccc2c(c1)C(=O)C1(CCN(CC3CCOCC3)CC1)N2 | 7.23 | –
24 | COC1c2cc(C(F)(F)F)ccc2NC12CCN(CC1CCOCC1)CC2 (stereo unspecified) | 8.24 | –
